Tests used:
[1] = tested on: femurs of male Wister rats; assay: Fracture test of femurs; assay type: in vivo, rat (Wister); conditions: rat femur, 40 μg/kg orally, 24 months; 20 kg-load cell; control 11.6 ± 2.2
Protocol: Male Wister rats 4 weeks old were preliminarily kept for 2 weeks. For the subsequent 24 months, the present substance, 24R,25-(OH)2 -D3, was orally administered to the pre-bred rats daily at a dosage of 40 μg/kg.day. Then, the aged rats were sacrificed and their femurs were collected and fractured with an instrument (produced by Iio Denki Co., Ltd. and marketed under trade name of "Rheodynacorder RDR-1500(D)") using a 20 kg-load cell, at a distance of 6.5 mm from the trochanter minor under the condition of a fulcrum interval of 13 mm to determine the power required for the fracture.
As regards the manner of administration, a modified feed was prepared by uniformly dispersing a prescribed amount of the present substance, 24R,25-(OH)2 -D3, in glycine and admixing the resultant dispersing mixture with a marketed feed (produced by Nippon Clea Co., Ltd. under product code of "CE-2") in such a manner as to give a final glycine concentration of 0.5% by weight and the modified feed was consumed by the rats. The administration dosage was calculated on the basis of the actual amount of the feed consumed by the rats.

ICR type mice [2] = assay: General inspection of blood, daily oral administration; assay type: in vivo, mouse (ICR type); design: key: .dwnarw.: Decrease below control; →: No difference from control; .uparw.: Increase above control
Protocol: (§1) Solutions obtained by dissolving the present substance, 24R,25-(OH)2 -D3 in a prescribed concentration in triglyceride of a fatty acid of 8 to 10 carbon atoms containing 1% of ethanol were administered respectively, orally, forcedly and daily to three male-groups and three female-groups of ICR type mice 5 weeks old at dosages of 10, 100, and 1,000 μg/kg.day. The results are compared below with respect to the following items with those obtained of the male- and female-groups using only the solvent without the present substance.

ICR type mice [3] = assay: Histopathological inspection of internal organs (haematoxylin eosine); assay type: in vivo, mouse (ICR type); conditions: male and female ICR mice, 10, 100, and 1,000 μg/kg.day orally
Protocol: as §1
The following internal organs were fixed with 10% formalin, tinted with haematoxylin eosine dye, and subjected to histopathological inspection.
Brain, heart, lung, liver, kidney, adrenal gland, spleen, pancreas, thyroid gland, pituitary gland, thymus, mesentery lymphoglandia, testis, ovary, uterus, stomach, small intestines (jejunum, ileum, and duodenum), large intestines (colon and caecum), orb, submaxillary gland, urinary bladder, dorsal skin, muscle, sternum, sternal medulla, femur, and femoral medulla.

[4] = Growth curves (body weight), daily oral administration; assay type: in vivo, mouse (ICR type); conditions: male and female ICR mice, 10, 100, and 1,000 μg/kg.day orally
Protocol: as §1

[5] = tested on: femurs and tibias of male Wister rats; assay: Soft X-ray photographs: volumes of cortical bone and sponge bone; assay type: in vivo, rat (Wister); conditions: 400 μg/kg.day orally, 24 months, vs control
Protocol: Male Wister rats 4 weeks old were preliminarily kept for two weeks. For the subsequent 24 months, the present substance, 24R,25-(OH)2 -D3, was orally administered daily at a dosage of 400 μg/kg.day to the pre-bred rats. Then, the aged rats were sacrificed and their femurs and tibias were collected in the form with adhering flesh, and soft X-ray photographs thereof were taken with a camera (produced by Soflon Corp. and marketed under product code of "Model NST-1005"). By the obtained photographs the volumes of the cortical bone and the sponge bone were measured. Further, as to a part of the femurs the central portion in the direction of the major axis of the femurs was inspected with a microdensitometer thereby analyzing the picture of pattern of shade concentration to calculate the index by the conventional M.D. method. As regards the manner of administration, a modified feed was prepared by uniformly dispersing a prescribed amount of the present substance, 24R,25-(OH)2 -D3, in glycine and admixing the resultant dispersing mixture with a marketed feed (produced by Nippon Clea Co., Ltd. under product code of "CE-2") in such a ratio as to give a final glycine concentration of 0.5% by weight, and the modified feed was consumed by the rats. To the rats of the control group, the same marketed feed containing 0.5% by weight of glycine was given.

C=C1CC[C@H](O)C/C1=C/C=C1\CCC[C@]2(C)[C@@H]([C@H](C)CC[C@@H](O)C(C)(C)O)CC[C@@H]12 [24R,25-(OH)2 -D3]
Power for fracture [1]: Out of scale, so large
Amount of hemoglobin (ICR type mice [2]; female, group IV, 10 μm/kg): →
Hematocrit value (ICR type mice [2]; female, group IV, 10 μm/kg): →
Number of red blood cells (ICR type mice [2]; female, group IV, 10 μm/kg): →
Number of white blood cells (ICR type mice [2]; female, group IV, 10 μm/kg): →
Amount of hemoglobin (ICR type mice [2]; female, group V, 100 μm/kg): →
Hematocrit value (ICR type mice [2]; female, group V, 100 μm/kg): →
Number of red blood cells (ICR type mice [2]; female, group V, 100 μm/kg): →
Number of white blood cells (ICR type mice [2]; female, group V, 100 μm/kg): →
Amount of hemoglobin (ICR type mice [2]; female, group VI, 1000 μg/kg): →
Hematocrit value (ICR type mice [2]; female, group VI, 1000 μg/kg): →
Number of red blood cells (ICR type mice [2]; female, group VI, 1000 μg/kg): →
Number of white blood cells (ICR type mice [2]; female, group VI, 1000 μm/kg): →
Amount of hemoglobin (ICR type mice [2]; male, group I, 10 μm/kg): →
Hematocrit value (ICR type mice [2]; male, group I, 10 μm/kg): →
Number of red blood cells (ICR type mice [2]; male, group I, 10 μm/kg): →
Number of white blood cells (ICR type mice [2]; male, group I, 10 μm/kg): →
Amount of hemoglobin (ICR type mice [2]; male, group II, 100 μm/kg): →
Hematocrit value (ICR type mice [2]; male, group II, 100 μm/kg): →
Number of red blood cells (ICR type mice [2]; male, group II, 100 μm/kg): →
Number of white blood cells (ICR type mice [2]; male, group II, 100 μm/kg): →
Amount of hemoglobin (ICR type mice [2]; male, group III, 1000 μg/kg): →
Hematocrit value (ICR type mice [2]; male, group III, 1000 μg/kg): →
Number of red blood cells (ICR type mice [2]; male, group III, 1000 μg/kg): →
Number of white blood cells (ICR type mice [2]; male, group III, 1000 μm/kg): →
histopathological inspection of internal organs (ICR type mice [3]): no discernible abnormality
change of body weight (growth curves) [4]: absence of a discernible difference
cortical bone width [5]: increase
lateral diameter, D [5]: increase
trabecula of the sponge bone at epiphysis [5]: increase
